Measured values from ChEMBL document CHEMBL3608278 (J Med Chem, 2015).
pIC50: −log10 of the molar value. Bridge positions count the residues as written; N and C are the ends. Square brackets hold non-standard residues; d marks the D form. Peptide text beside a SMILES is read from it. 1Nal = N[C@@H](Cc1cccc2ccccc12)C(=O)O

How the values were obtained:
[1] = biological target: T1, Potassium voltage-gated channel subfamily A member 3 (Homo sapiens, UniProt P22001); type: cell-based, CHO-K1
[2] = biological target: T1, Potassium voltage-gated channel subfamily A member 3; experiment: cell-based; set-up: species or system Blood
[3] = biological target: T1, Potassium voltage-gated channel subfamily A member 3; set-up: species or system Blood

T1 sequence (P22001 whole entry): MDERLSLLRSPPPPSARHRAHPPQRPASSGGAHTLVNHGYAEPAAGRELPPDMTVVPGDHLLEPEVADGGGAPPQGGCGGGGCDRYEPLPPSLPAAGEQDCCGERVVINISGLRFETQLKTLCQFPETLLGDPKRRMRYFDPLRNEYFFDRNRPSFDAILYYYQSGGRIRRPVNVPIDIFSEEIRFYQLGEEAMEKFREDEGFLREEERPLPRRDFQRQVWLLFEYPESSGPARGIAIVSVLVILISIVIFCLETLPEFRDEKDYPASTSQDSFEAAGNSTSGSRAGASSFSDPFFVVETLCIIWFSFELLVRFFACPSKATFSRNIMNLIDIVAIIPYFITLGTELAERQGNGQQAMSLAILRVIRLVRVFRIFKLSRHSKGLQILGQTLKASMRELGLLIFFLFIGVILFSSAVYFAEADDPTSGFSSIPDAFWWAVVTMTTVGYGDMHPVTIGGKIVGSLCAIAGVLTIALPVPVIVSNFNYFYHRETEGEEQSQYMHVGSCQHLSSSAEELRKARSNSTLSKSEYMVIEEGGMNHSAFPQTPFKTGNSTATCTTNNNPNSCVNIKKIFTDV

pIC50 [2] | pIC50 [3] | pIC50 [1] | SMILES | pIC50 ([1]; cho-k1)
9.51 | 9.24 | 9.57 | CC[C@H](C)[C@@H]1NC(=O)[C@@H](NC(=O)[C@H](CO)NC(=O)[C@@H](N)CCCNC(=N)N)CSSC[C@@H](C(=O)O)NC(=O)[C@H]([C@@H](C)O)NC(=O)CNC(=O)[C@@H]2CSSC[C@@H]3NC(=O)[C@H](CCC(N)=O)NC(=O)[C@H](CCC(=O)O)NC(=O)[C@H](C)NC(=O)[C@H]([C@@H](C)O)NC(=O)[C@H](CSSC[C@H](NC(=O)[C@H](Cc4ccccc4)NC(=O)[C@H](CO)NC(=O)[C@H](CC(C)C)NC(=O)[C@H](CCCNC(=N)N)NC(=O)[C@H](Cc4ccc(O)cc4)NC(=O)[C@H](CCCCN)NC(=O)[C@H](CCSC)NC(=O)[C@H](CO)NC(=O)[C@H](C)NC(=O)[C@H](CCCCN)NC3=O)C(=O)N[C@@H](CCCNC(=N)N)C(=O)N[C@@H](CCCCN)C(=O)N[C@@H]([C@@H](C)O)C(=O)N2)NC(=O)[C@H](CCCNC(=N)N)NC(=O)[C@H](CO)NC(=O)[C@H](CCCCN)NC(=O)[C@@H]2CCCN2C(=O)[C@H]([C@@H](C)CC)NC(=O)[C@H]([C@@H](C)O)NC(=O)[C@H](CC(=O)O)NC1=O (H-RSCIDTIPKSRCTAEQCKASMKYRLSFCRKTCGTC-OH; disulfide 3-35, 12-28, 17-32) | 
9.33 | 9.00 | 9.53 | CC[C@H](C)[C@@H]1NC(=O)[C@@H](NC(=O)[C@H](CO)NC(=O)[C@@H](N)CCCNC(=N)N)CSSC[C@@H](C(=O)O)NC(=O)[C@H]([C@@H](C)O)NC(=O)CNC(=O)[C@@H]2CSSC[C@@H]3NC(=O)[C@H](CCC(N)=O)NC(=O)[C@H](CCCCN)NC(=O)[C@H](C)NC(=O)[C@H]([C@@H](C)O)NC(=O)[C@H](CSSC[C@H](NC(=O)[C@H](Cc4ccccc4)NC(=O)[C@H](CO)NC(=O)[C@H](CC(C)C)NC(=O)[C@H](CCCNC(=N)N)NC(=O)[C@H](Cc4ccc(O)cc4)NC(=O)[C@H](CCCCN)NC(=O)[C@H](CCSC)NC(=O)[C@H](CO)NC(=O)[C@H](C)NC(=O)[C@H](CCCCN)NC3=O)C(=O)N[C@@H](CCCNC(=N)N)C(=O)N[C@@H](CCCCN)C(=O)N[C@@H]([C@@H](C)O)C(=O)N2)NC(=O)[C@H](CCCNC(=N)N)NC(=O)[C@H](CO)NC(=O)[C@H](CCCCN)NC(=O)[C@@H]2CCCN2C(=O)[C@H]([C@@H](C)CC)NC(=O)[C@H]([C@@H](C)O)NC(=O)[C@H](CC(=O)O)NC1=O (H-RSCIDTIPKSRCTAKQCKASMKYRLSFCRKTCGTC-OH; disulfide 3-35, 12-28, 17-32) | 
9.74 | 9.54 | 10.14 | CC[C@H](C)[C@@H]1NC(=O)[C@@H](NC(=O)[C@H](CO)NC(=O)[C@@H](N)CCCNC(=N)N)CSSC[C@@H](C(=O)O)NC(=O)[C@H]([C@@H](C)O)NC(=O)CNC(=O)[C@@H]2CSSC[C@@H]3NC(=O)[C@H](CCC(N)=O)NC(=O)[C@H](Cc4cccc5ccccc45)NC(=O)[C@H](C)NC(=O)[C@H]([C@@H](C)O)NC(=O)[C@H](CSSC[C@H](NC(=O)[C@H](Cc4ccccc4)NC(=O)[C@H](CO)NC(=O)[C@H](CC(C)C)NC(=O)[C@H](CCCNC(=N)N)NC(=O)[C@H](Cc4ccc(O)cc4)NC(=O)[C@H](CCCCN)NC(=O)[C@H](CCSC)NC(=O)[C@H](CO)NC(=O)[C@H](C)NC(=O)[C@H](CCCCN)NC3=O)C(=O)N[C@@H](CCCNC(=N)N)C(=O)N[C@@H](CCCCN)C(=O)N[C@@H]([C@@H](C)O)C(=O)N2)NC(=O)[C@H](CCCNC(=N)N)NC(=O)[C@H](CO)NC(=O)[C@H](CCCCN)NC(=O)[C@@H]2CCCN2C(=O)[C@H]([C@@H](C)CC)NC(=O)[C@H]([C@@H](C)O)NC(=O)[C@H](CC(=O)O)NC1=O (H-RSCIDTIPKSRCTA[1Nal]QCKASMKYRLSFCRKTCGTC-OH; disulfide 3-35, 12-28, 17-32) | 
10.44 | 9.88 | 9.96 | CC[C@H](C)[C@@H]1NC(=O)[C@@H](NC(=O)[C@H](CO)NC(=O)[C@@H](N)CCCNC(=N)N)CSSC[C@@H](C(=O)O)NC(=O)[C@H]([C@@H](C)O)NC(=O)CNC(=O)[C@@H]2CSSC[C@@H]3NC(=O)[C@H](CCC(N)=O)NC(=O)[C@H](Cc4ccccc4)NC(=O)[C@H](CCC(=O)O)NC(=O)[C@H]([C@@H](C)O)NC(=O)[C@H](CSSC[C@H](NC(=O)[C@H](Cc4ccccc4)NC(=O)[C@H](CO)NC(=O)[C@H](CC(C)C)NC(=O)[C@H](CCCNC(=N)N)NC(=O)[C@H](Cc4ccc(O)cc4)NC(=O)[C@H](CCCCN)NC(=O)[C@H](CCSC)NC(=O)[C@H](CO)NC(=O)[C@H](Cc4cnc[nH]4)NC(=O)[C@H](CCCCN)NC3=O)C(=O)N[C@@H](CCCNC(=N)N)C(=O)N[C@@H](CCCCN)C(=O)N[C@@H]([C@@H](C)O)C(=O)N2)NC(=O)[C@H](CCCNC(=N)N)NC(=O)[C@H](CO)NC(=O)[C@H](CCCCN)NC(=O)[C@@H]2CCCN2C(=O)[C@H]([C@@H](C)CC)NC(=O)[C@H]([C@@H](C)O)NC(=O)[C@H](Cc2cccc3ccccc23)NC1=O (H-RSCI[1Nal]TIPKSRCTEFQCKHSMKYRLSFCRKTCGTC-OH; disulfide 3-35, 12-28, 17-32) | 
10.12 | 9.70 | 10.14 | CC[C@H](C)[C@@H]1NC(=O)[C@@H](NC(=O)[C@H](CO)NC(=O)[C@@H](N)CCCNC(=N)N)CSSC[C@@H](C(=O)O)NC(=O)[C@H]([C@@H](C)O)NC(=O)CNC(=O)[C@@H]2CSSC[C@@H]3NC(=O)[C@H](CCC(N)=O)NC(=O)[C@H](Cc4ccccc4)NC(=O)[C@H](CCCCN)NC(=O)[C@H]([C@@H](C)O)NC(=O)[C@H](CSSC[C@H](NC(=O)[C@H](Cc4ccccc4)NC(=O)[C@H](CO)NC(=O)[C@H](CC(C)C)NC(=O)[C@H](CCCNC(=N)N)NC(=O)[C@H](Cc4ccc(O)cc4)NC(=O)[C@H](CCCCN)NC(=O)[C@H](CCSC)NC(=O)[C@H](CO)NC(=O)[C@H](Cc4cnc[nH]4)NC(=O)[C@H](CCCCN)NC3=O)C(=O)N[C@@H](CCCNC(=N)N)C(=O)N[C@@H](CCCCN)C(=O)N[C@@H]([C@@H](C)O)C(=O)N2)NC(=O)[C@H](CCCNC(=N)N)NC(=O)[C@H](CO)NC(=O)[C@H](CCCCN)NC(=O)[C@@H]2CCCN2C(=O)[C@H]([C@@H](C)CC)NC(=O)[C@H]([C@@H](C)O)NC(=O)[C@H](Cc2cccc3ccccc23)NC1=O (H-RSCI[1Nal]TIPKSRCTKFQCKHSMKYRLSFCRKTCGTC-OH; disulfide 3-35, 12-28, 17-32) | 
10.05 | 9.96 | 10.41 | CC[C@H](C)[C@@H]1NC(=O)[C@@H](NC(=O)[C@H](CO)NC(=O)[C@@H](N)CCCNC(=N)N)CSSC[C@@H](C(=O)O)NC(=O)[C@H]([C@@H](C)O)NC(=O)CNC(=O)[C@@H]2CSSC[C@@H]3NC(=O)[C@H](CCC(N)=O)NC(=O)[C@H](Cc4ccccc4)NC(=O)[C@H](Cc4cccc5ccccc45)NC(=O)[C@H]([C@@H](C)O)NC(=O)[C@H](CSSC[C@H](NC(=O)[C@H](Cc4ccccc4)NC(=O)[C@H](CO)NC(=O)[C@H](CC(C)C)NC(=O)[C@H](CCCNC(=N)N)NC(=O)[C@H](Cc4ccc(O)cc4)NC(=O)[C@H](CCCCN)NC(=O)[C@H](CCSC)NC(=O)[C@H](CO)NC(=O)[C@H](Cc4cnc[nH]4)NC(=O)[C@H](CCCCN)NC3=O)C(=O)N[C@@H](CCCNC(=N)N)C(=O)N[C@@H](CCCCN)C(=O)N[C@@H]([C@@H](C)O)C(=O)N2)NC(=O)[C@H](CCCNC(=N)N)NC(=O)[C@H](CO)NC(=O)[C@H](CCCCN)NC(=O)[C@@H]2CCCN2C(=O)[C@H]([C@@H](C)CC)NC(=O)[C@H]([C@@H](C)O)NC(=O)[C@H](Cc2cccc3ccccc23)NC1=O (H-RSCI[1Nal]TIPKSRCT[1Nal]FQCKHSMKYRLSFCRKTCGTC-OH; disulfide 3-35, 12-28, 17-32) | 

SMILES | pIC50 [2] | pIC50 [3] | pIC50 [1] | pIC50 ([1]; cho-k1)
CC[C@H](C)[C@@H]1NC(=O)[C@@H](NC(=O)[C@H](CO)NC(=O)[C@@H](N)CCCNC(=N)N)CSSC[C@@H](C(=O)O)NC(=O)[C@H]([C@@H](C)O)NC(=O)CNC(=O)[C@@H]2CSSC[C@@H]3NC(=O)[C@H](CCCCN)NC(=O)[C@H](Cc4ccccc4)NC(=O)[C@H](C)NC(=O)[C@H]([C@@H](C)O)NC(=O)[C@H](CSSC[C@H](NC(=O)[C@H](Cc4ccccc4)NC(=O)[C@H](CO)NC(=O)[C@H](CC(C)C)NC(=O)[C@H](CCCNC(=N)N)NC(=O)[C@H](Cc4ccc(O)cc4)NC(=O)[C@H](CCCCN)NC(=O)[C@H](CCCCN)NC(=O)[C@H](CO)NC(=O)[C@H](Cc4cnc[nH]4)NC(=O)[C@H](CCCCN)NC3=O)C(=O)N[C@@H](CCCNC(=N)N)C(=O)N[C@@H](CCCCN)C(=O)N[C@@H]([C@@H](C)O)C(=O)N2)NC(=O)[C@H](CCCNC(=N)N)NC(=O)[C@H](CO)NC(=O)[C@H](CCCCN)NC(=O)[C@@H]2CCCN2C(=O)[C@H]([C@@H](C)CC)NC(=O)[C@H]([C@@H](C)O)NC(=O)[C@H](CC(=O)O)NC1=O | 9.60 | 8.25 |  | 9.89
CCCC[C@@H]1NC(=O)[C@H](CO)NC(=O)[C@H](Cc2c[nH]cn2)NC(=O)[C@H](CCCCN)NC(=O)[C@@H]2CSSC[C@@H]3NC(=O)[C@H]([C@@H](C)O)NC(=O)[C@H](CCCCN)NC(=O)[C@H](CCCNC(=N)N)NC(=O)[C@H](CSSC[C@H](NC(=O)[C@H](CCCNC(=N)N)NC(=O)[C@H](CO)NC(=O)[C@H](CCCCN)NC(=O)[C@@H]4CCCN4C(=O)[C@H]([C@@H](C)CC)NC(=O)[C@H]([C@@H](C)O)NC(=O)[C@H](CC(=O)O)NC(=O)[C@H]([C@@H](C)CC)NC(=O)[C@@H](NC(=O)[C@H](CO)NC(=O)[C@@H](N)CCCNC(=N)N)CSSC[C@@H](C(=O)N[C@@H](C)C(=O)O)NC(=O)[C@H]([C@@H](C)O)NC(=O)CNC3=O)C(=O)N[C@@H]([C@@H](C)O)C(=O)N[C@@H](C)C(=O)N[C@@H](Cc3ccccc3)C(=O)N[C@@H](CCCCN)C(=O)N2)NC(=O)[C@H](Cc2ccccc2)NC(=O)[C@H](CO)NC(=O)[C@H](CC(C)C)NC(=O)[C@H](CCCNC(=N)N)NC(=O)[C@H](Cc2ccc(O)cc2)NC(=O)[C@H](CCCCN)NC1=O | 9.52 | 9.29 | 10.15 | 
